# Tested on: MCH receptors
# Assay: MCH receptor activity class (method not given)
# Settings: class by percent of control at 10^−7 M or IC50
row,Structure (SMILES),class
1,"Cc1cc(N(C)C)nc(N[C@H]2CC[C@@H](CNC(=O)c3ccc(Cl)cc3)CC2)n1 [compound 2770, 4-chloro-N-[(cis-4-{[4-(dimethylamino)-6-methylpyrimidin-2-yl]amino}cyclohexyl)methyl]benzamide]",2 (Class 2: The value of percent of control at 10^−7 M was from 40% to 60% or the value of IC′50 was from 50 nM to 200 nM.)
2,"Cc1cnc(N[C@H]2CC[C@@H](C(=O)N[C@H](C)c3ccccc3)CC2)nc1N(C)C [compound 2771, cis-4-{[4-(dimethylamino)-5-methylpyrimidin-2-yl]amino}-N-[(1R)-1-phenylethyl]cyclohexanecarboxamide]",2 (Class 2: The value of percent of control at 10^−7 M was from 40% to 60% or the value of IC′50 was from 50 nM to 200 nM.)
3,"Cc1ccc([C@H](C)NC(=O)[C@H]2CC[C@@H](Nc3ncc(C)c(N(C)C)n3)CC2)cc1 [compound 2772, cis-4-{[4-(dimethylamino)-5-methylpyrimidin-2-yl]amino}-N-[(1S)-1-(4-methylphenyl)ethyl]cyclohexanecarboxamide]",1 (Class 1: The value of percent of control at 10^−7 M was less than 40% or the value of IC50 was less than 50 nM.)
4,"Cc1cnc(N[C@H]2CC[C@@H](C(=O)N[C@H](C)c3ccc(F)cc3)CC2)nc1N(C)C [compound 2773, cis-4-{[4-(dimethylamino)-5-methylpyrimidin-2-yl]amino}-N-[(1R)-1-(4-fluorophenyl)ethyl]cyclohexanecarboxamide]",1 (Class 1: The value of percent of control at 10^−7 M was less than 40% or the value of IC50 was less than 50 nM.)
5,"Cc1cnc(N[C@H]2CC[C@@H](C(=O)N[C@@H](C)c3ccc(F)cc3)CC2)nc1N(C)C [compound 2774, cis-4-{[4-(dimethylamino)-5-methylpyrimidin-2-yl]amino}-N-[(1S)-1-(4-fluorophenyl)ethyl]cyclohexanecarboxamide]",2 (Class 2: The value of percent of control at 10^−7 M was from 40% to 60% or the value of IC′50 was from 50 nM to 200 nM.)
6,"COc1cccc([C@@H](C)NC(=O)[C@H]2CC[C@@H](Nc3ncc(C)c(N(C)C)n3)CC2)c1 [compound 2775, cis-4-{[4-(dimethylamino)-5-methylpyrimidin-2-yl]amino}-N-[(1R)-1-(3-methoxyphenyl)ethyl]cyclohexanecarboxamide]",1 (Class 1: The value of percent of control at 10^−7 M was less than 40% or the value of IC50 was less than 50 nM.)
7,"COc1cccc([C@H](C)NC(=O)[C@H]2CC[C@@H](Nc3ncc(C)c(N(C)C)n3)CC2)c1 [compound 2776, cis-4-{[4-(dimethylamino)-5-methylpyrimidin-2-yl]amino}-N-[(1S)-1-(3-methoxyphenyl)ethyl]cyclohexanecarboxamide]",1 (Class 1: The value of percent of control at 10^−7 M was less than 40% or the value of IC50 was less than 50 nM.)
8,"COc1ccc([C@H](C)NC(=O)[C@H]2CC[C@@H](Nc3ncc(C)c(N(C)C)n3)CC2)cc1 [compound 2777, cis-4-{[4-(dimethylamino)-5-methylpyrimidin-2-yl]amino}-N-[(1S)-1-(4-methoxyphenyl)ethyl]cyclohexanecarboxamide]",1 (Class 1: The value of percent of control at 10^−7 M was less than 40% or the value of IC50 was less than 50 nM.)
9,"Cc1cnc(N[C@H]2CC[C@@H](C(=O)N[C@H](C)c3ccc(Cl)cc3)CC2)nc1N(C)C [compound 2778, cis-N-[(1R)-1-(4-chlorophenyl)ethyl]-4-{[4-(dimethylamino)-5-methylpyrimidin-2-yl]amino}cyclohexanecarboxamide]",1 (Class 1: The value of percent of control at 10^−7 M was less than 40% or the value of IC50 was less than 50 nM.)
10,"Cc1cnc(N[C@H]2CC[C@@H](C(=O)N[C@H](C)c3ccc([N+](=O)[O-])cc3)CC2)nc1N(C)C [compound 2780, cis-4-{[4-(dimethylamino)-5-methylpyrimidin-2-yl]amino}-N-[(1R)-1-(4-nitrophenyl)ethyl]cyclohexanecarboxamide]",1 (Class 1: The value of percent of control at 10^−7 M was less than 40% or the value of IC50 was less than 50 nM.)
11,"Cc1cnc(N[C@H]2CC[C@@H](C(=O)N[C@@H](C)c3ccc([N+](=O)[O-])cc3)CC2)nc1N(C)C [compound 2781, cis-4-{[4-(dimethylamino)-5-methylpyrimidin-2-yl]amino}-N-[(1S)-1-(4-nitrophenyl)ethyl]cyclohexanecarboxamide]",2 (Class 2: The value of percent of control at 10^−7 M was from 40% to 60% or the value of IC′50 was from 50 nM to 200 nM.)
12,"Cc1cnc(N[C@H]2CC[C@@H](C(=O)N[C@H](C)c3cccc4ccccc34)CC2)nc1N(C)C [compound 2782, cis-4-{[4-(dimethylamino)-5-methylpyrimidin-2-yl]amino}-N-[(1R)-1-(1-naphthyl)ethyl]cyclohexanecarboxamide]",1 (Class 1: The value of percent of control at 10^−7 M was less than 40% or the value of IC50 was less than 50 nM.)
13,"Cc1cnc(N[C@H]2CC[C@@H](C(=O)Nc3cccc(F)c3)CC2)nc1N(C)C [compound 2784, cis-4-{[4-(dimethylamino)-5-methylpyrimidin-2-yl]amino}-N-(3-fluorophenyl)cyclohexanecarboxamide]",2 (Class 2: The value of percent of control at 10^−7 M was from 40% to 60% or the value of IC′50 was from 50 nM to 200 nM.)
14,CCCc1ccc(NC(=O)[C@H]2CC[C@@H](Nc3ncc(C)c(N(C)C)n3)CC2)cc1 [compound 2785],2 (Class 2: The value of percent of control at 10^−7 M was from 40% to 60% or the value of IC′50 was from 50 nM to 200 nM.)
15,COc1ccc(NC(=O)[C@H]2CC[C@@H](Nc3ncc(C)c(N(C)C)n3)CC2)cc1 [compound 2786],3 (Class 3 The value of percent of control at 10^−7 M was more than 60% or the value of IC50 was more than 200 nM.)
16,"COc1cccc(NC(=O)[C@H]2CC[C@@H](Nc3ncc(C)c(N(C)C)n3)CC2)c1 [compound 2787, cis-4-{[4-(dimethylamino)-5-methylpyrimidin-2-yl]amino}-N-(3-methoxyphenyl)cyclohexanecarboxamide]",1 (Class 1: The value of percent of control at 10^−7 M was less than 40% or the value of IC50 was less than 50 nM.)
17,"Cc1cnc(N[C@H]2CC[C@@H](C(=O)Nc3cccc(Cl)c3)CC2)nc1N(C)C [compound 2788, cis-N-(3-chlorophenyl)-4-{[4-(dimethylamino)-5-methylpyrimidin-2-yl]amino}cyclohexanecarboxamide]",1 (Class 1: The value of percent of control at 10^−7 M was less than 40% or the value of IC50 was less than 50 nM.)
18,Cc1cnc(N[C@H]2CC[C@@H](C(=O)Nc3ccccc3Br)CC2)nc1N(C)C [compound 2789],3 (Class 3 The value of percent of control at 10^−7 M was more than 60% or the value of IC50 was more than 200 nM.)
19,"Cc1cnc(N[C@H]2CC[C@@H](C(=O)N[C@H]3C[C@@H]3c3ccccc3)CC2)nc1N(C)C [compound 2790, cis-4-{[4-(dimethylamino)-5-methylpyrimidin-2-yl]amino}-N-[(1S,2R)-2-phenylcyclopropyl]cyclohexanecarboxamide]",1 (Class 1: The value of percent of control at 10^−7 M was less than 40% or the value of IC50 was less than 50 nM.)
